According to the supplement of paper PMC10627819:

What was measured:
Assay in all cases: fitness (endpoint OD595 vs no drug) (fraction); higher = more growth
S. aureus Newman = system: S. aureus Newman
Outline: (§1)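 Background-subtracted growth curves were the basis for fitness, taken as the optical density at entry into stationary phase over the robust mean of no-drug control wells. A cap of 1 was applied. The curves came from OD595 readings every 30 min for 14 h at 37 °C, in 384-well plates seeded at OD595 0.01 with 30 µl, or 55 µl for S. pneumoniae.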

S. aureus DSM 20231 = system: S. aureus DSM 20231
Outline: as §1

B. subtilis 168 = system: B. subtilis 168
Outline: as §1

O=C(N[C@H](CO)[C@H](O)c1ccc([N+](=O)[O-])cc1)C(Cl)Cl [Chloramphenicol] + CO/N=C(\C(=O)N[C@@H]1C(=O)N2C(C(=O)O)=C(COC(C)=O)CS[C@H]12)c1csc(N)n1 [Cefotaxime]
fitness
Conditions	first compound 0.75 µg/mL	first compound 1.5 µg/mL	first compound 3 µg/mL
S. aureus DSM 20231, partner 0.039 µg/mL	0.649	0.629	0.137
S. aureus DSM 20231, partner 0.078 µg/mL	0.672	0.618	0.191
S. aureus DSM 20231, partner 0.156 µg/mL	0.641	0.599	0.194
S. aureus Newman, partner 0.078 µg/mL	0.534	0.321	0.136
S. aureus Newman, partner 0.156 µg/mL	0.406	0.206	0.0948
S. aureus Newman, partner 0.312 µg/mL	0.198	0.0711	0.065

fitness, one replicate
Conditions	first compound 0.75 µg/mL	first compound 1.5 µg/mL	first compound 3 µg/mL
S. aureus DSM 20231, partner 0.312 µg/mL	0.607	0.586	0.227
S. aureus Newman, partner 0.625 µg/mL	0.0565	0.0229	0.0195
S. aureus Newman, partner 1.25 µg/mL	0.0337	0.0237	0.0515
S. aureus Newman, partner 2.5 µg/mL	0.0674	0.0266	0.0651

N[C@@H]1CONC1=O [Cycloserine D] + COc1cc(Cc2cnc(N)nc2N)cc(OC)c1OC [Trimethoprim]
fitness
Conditions	partner 0.125 µg/mL	partner 0.25 µg/mL	partner 0.5 µg/mL	partner 1 µg/mL
B. subtilis 168, first compound 0.125 µg/mL	0.635	0.501	0.475	–
B. subtilis 168, first compound 0.25 µg/mL	0.664	–	0.48	–
B. subtilis 168, first compound 0.5 µg/mL	0.664	–	0.511	–
S. aureus DSM 20231, first compound 0.375 µg/mL	0.758	–	–	0.0316
S. aureus DSM 20231, first compound 0.75 µg/mL	0.807	0.61	–	0.0296
S. aureus DSM 20231, first compound 1.5 µg/mL	0.804	0.569	–	0.0385

fitness, B. subtilis 168, one replicate
Conditions	partner 0.1 µg/mL	partner 0.2 µg/mL	partner 0.4 µg/mL	partner 1 µg/mL	partner 2 µg/mL
first compound 0.125 µg/mL	0.917	0.789	0.584	0.344	0.268
first compound 0.25 µg/mL	0.849	0.757	0.56	0.323	0.243
first compound 0.5 µg/mL	0.986	0.818	0.533	0.358	0.234

N[C@@H]1CONC1=O [Cycloserine D] + CN[C@H](CC(C)C)C(=O)N[C@H]1C(=O)N[C@@H](CC(N)=O)C(=O)N[C@H]2C(=O)N[C@H]3C(=O)N[C@H](C(=O)N[C@H](C(=O)O)c4cc(O)cc(O)c4-c4cc3ccc4O)[C@H](O)c3ccc(c(Cl)c3)Oc3cc2cc(c3O[C@@H]2O[C@H](CO)[C@@H](O)[C@H](O)[C@H]2O[C@H]2C[C@](C)(N)[C@H](O)[C@H](C)O2)Oc2ccc(cc2Cl)[C@H]1O [Vancomycin]
fitness
Conditions	first compound 0.375 µg/mL	first compound 0.75 µg/mL	first compound 1.5 µg/mL
S. aureus DSM 20231, partner 0.1875 µg/mL	≥ 1	0.973	≥ 1
S. aureus DSM 20231, partner 0.375 µg/mL	≥ 1	≥ 1	0.957
S. aureus DSM 20231, partner 0.75 µg/mL	≥ 1	≥ 1	≥ 1
S. aureus Newman, partner 0.1875 µg/mL	≥ 1	0.995	0.983
S. aureus Newman, partner 0.375 µg/mL	≥ 1	≥ 1	≥ 1
S. aureus Newman, partner 0.75 µg/mL	≥ 1	0.975	0.967

N[C@@H]1CONC1=O [Cycloserine D] + Cn1nnc(-c2ccc(-c3ccc(N4C[C@H](CO)OC4=O)cc3F)cn2)n1 [Tedizolid]
fitness
Conditions	first compound 0.375 µg/mL	first compound 0.75 µg/mL	first compound 1.5 µg/mL
S. aureus DSM 20231, partner 0.0625 µg/mL	0.95	0.942	0.923
S. aureus DSM 20231, partner 0.125 µg/mL	0.738	0.802	0.827
S. aureus Newman, partner 0.0625 µg/mL	0.956	0.938	0.99
S. aureus Newman, partner 0.125 µg/mL	0.925	0.842	0.855

O=C(N[C@H](CO)[C@H](O)c1ccc([N+](=O)[O-])cc1)C(Cl)Cl [Chloramphenicol] + N[C@@H]1CONC1=O [Cycloserine D]
fitness
Conditions	partner 0.375 µg/mL	partner 0.75 µg/mL	partner 1.5 µg/mL
S. aureus DSM 20231, first compound 0.75 µg/mL	0.642	0.662	0.66
S. aureus DSM 20231, first compound 3 µg/mL	0.0914	0.0972	0.0952
S. aureus Newman, first compound 0.75 µg/mL	0.813	0.824	0.801
S. aureus Newman, first compound 1.5 µg/mL	0.573	0.542	0.571
S. aureus Newman, first compound 3 µg/mL	0.201	0.164	0.165

N[C@@H]1CONC1=O [Cycloserine D] + CO/N=C(\C(=O)N[C@@H]1C(=O)N2C(C(=O)[O-])=C(C[N+]3(C)CCCC3)CS[C@H]12)c1csc(N)n1 [Cefepime]
fitness
Conditions	first compound 0.375 µg/mL	first compound 0.75 µg/mL	first compound 1.5 µg/mL
S. aureus DSM 20231, partner 0.125 µg/mL	0.907	0.936	0.99
S. aureus DSM 20231, partner 0.25 µg/mL	0.92	0.97	0.952
S. aureus DSM 20231, partner 0.5 µg/mL	0.853	0.884	0.862
S. aureus Newman, partner 0.125 µg/mL	0.894	0.925	0.89
S. aureus Newman, partner 0.25 µg/mL	0.808	0.854	0.852
S. aureus Newman, partner 0.5 µg/mL	0.782	0.801	0.779
